From patent publication US8299048B2, “Hexahydrocyclopentyl[f]indazole sulfonamides and derivatives thereof as selective glucocorticoid receptor modulators” (Merck Sharp & Dohme Corp., priority 2008, dated 2012)

molecular target: T1, glucocorticoid receptor (Homo sapiens, UniProt P04150); assay: Ligand binding assay (GR BIND)
T1 construct: endogenous in cells
T1 sequence (P04150 1-777): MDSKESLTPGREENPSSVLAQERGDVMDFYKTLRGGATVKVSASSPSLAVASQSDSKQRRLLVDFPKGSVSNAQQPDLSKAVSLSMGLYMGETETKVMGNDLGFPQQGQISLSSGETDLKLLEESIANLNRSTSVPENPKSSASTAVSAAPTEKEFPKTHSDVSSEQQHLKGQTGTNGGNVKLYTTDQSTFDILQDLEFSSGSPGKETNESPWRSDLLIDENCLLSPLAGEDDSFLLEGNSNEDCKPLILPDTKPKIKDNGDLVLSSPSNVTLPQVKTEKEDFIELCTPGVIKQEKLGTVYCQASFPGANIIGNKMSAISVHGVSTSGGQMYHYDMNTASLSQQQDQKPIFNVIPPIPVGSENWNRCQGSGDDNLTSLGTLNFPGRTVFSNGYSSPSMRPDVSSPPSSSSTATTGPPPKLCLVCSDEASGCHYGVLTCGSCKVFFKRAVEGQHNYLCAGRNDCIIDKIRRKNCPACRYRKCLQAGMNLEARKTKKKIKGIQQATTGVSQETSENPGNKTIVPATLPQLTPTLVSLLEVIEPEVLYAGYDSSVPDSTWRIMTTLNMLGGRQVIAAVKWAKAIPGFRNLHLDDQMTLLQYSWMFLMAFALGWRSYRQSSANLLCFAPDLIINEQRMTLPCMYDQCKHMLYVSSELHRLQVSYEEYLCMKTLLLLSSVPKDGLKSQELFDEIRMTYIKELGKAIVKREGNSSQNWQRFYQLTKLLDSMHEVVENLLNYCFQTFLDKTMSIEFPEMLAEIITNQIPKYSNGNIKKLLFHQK
Experimental: • Materials: • Binding Buffer: TEGM (10 mM Tris-HCl, 1 mM EDTA, 10% glycerol, 1 mM beta-mecaptoethanol, 10 mM Sodium Molybdate, pH 7.2) • 50% HAP Slurry: Calbiochem Hydroxylapatite, Fast Flow, in 10 mM Tris, pH 8.0 and 1 mM EDTA. • Wash Buffer: 40 mM Tris, pH7.5, 100 mM KCl, 1 mM EDTA and 1 mM EGTA.
Phenol red-free Trypsin-EDTA is diluted in the same PBS1:10. The cell layers are rinsed with 1× Trypsin, extra Trypsin is poured out, and the cell layers are incubated at 37° C. for ˜2 min. The flask is tapped and checked for signs of cell detachment. Once the cells begin to slide off the flask, the complete media is added. The cells are counted at this point, then diluted to the appropriate concentration and split into flasks or dishes for further culturing (Usually 1:3 to 1:6 dilution).
When the cells are 70 to 85% confluent, they are detached as described above, and collected by centrifuging at 1000 g for 10 minutes at 4° C. The cell pellet is washed twice with TEGM (10 mM Tris-HCl, 1 mM EDTA, 10% glycerol, 1 mM beta-mercaptoethanol, 10 mM Sodium Molybdate, pH 7.2). After the final wash, the cells are resuspended in TEGM at a concentration of 10^7 cells/mL. The cell suspension is snap frozen in liquid nitrogen or ethanol/dry ice bath and transferred to −80° C. freezer on dry ice. Before setting up the binding assay, the frozen samples are left on ice-water to just thaw (˜1 hr). Then the samples are centrifuged at 12,500 g to 20,000 g for 30 min at 4° C. The supernatant is used to set-up assay right away. If using 50 μL of supernatant, the test compound can be prepared in 50 μL of the TEGM buffer.
1×TEGM buffer is prepared, and the isotope-containing assay mixture is prepared in the following order: EtOH (2% final concentration in reaction), 3H-DEX (Amersham Biosciences) and 1×TEGM. [e.g. For 100 samples, 200 μL (100×2) of EtOH+4.25 μL of 1:10 ^3H—Dex stock+2300 μL (100×23) 1×TEGM]. The compound is serially diluted, e.g., if starting final conc. is 1 μM, and the compound is in 25 μL of solution, for duplicate samples, 75 μL of 4×1 μM solution is made and 3 μL of 100 μM is added to 72 μL of buffer, and 1:5 serial dilution.
25 μL of ^3H-DEX (6 nM) trace and 25 μL compound solution are first mixed together, followed by addition of 50 μL receptor solution. The reaction is gently mixed, spun briefly at about 200 rpm and incubated at 4° C. overnight. 100 μL of 50% HAP slurry is prepared and added to the incubated reaction which is then vortexed and incubated on ice for 5 to 10 minutes. The reaction mixture is vortexed twice more to resuspend HAP while incubating reaction. The samples in 96-well format are then washed in wash buffer using The FilterMate™ Universal Harvester plate washer (Packard). The washing process transfers HAP pellet containing ligand-bound expressed receptor to Unifilter-96 GF/B filter plate (Packard). The HAP pellet on the filter plate is incubated with 50 μL of MICROSCINT (Packard) scintillint for 30 minutes before being counted on the TopCount microscintillation counter (Packard). […] are calculated using DEX as a reference.

Ki | SMILES
1.5 nM | COc1ccccc1CCN(C[C@H]1CCC2=Cc3c(cnn3-c3ccccc3)C[C@@]21C)S(=O)(=O)CC(F)(F)F [Example 139, 2,2,2-trifluoro-N-[2-(2-methoxyphenyl)ethyl]-N-{[(4αR,5S)-4α-methyl-1-phenyl-1,4,4α,5,6,7-hexahydrocyclopenta[f]indazol-5-yl]methyl}ethanesulfonamide]
1.6 nM | C[C@]12Cc3cnn(-c4ccc(F)cc4)c3C=C1CC[C@@H]2CN(CCc1ccccn1)S(=O)(=O)Cc1ccncc1 [Example 166, N-{[(4αR,5S)-1-(4-fluorophenyl)-4α-methyl-1,4,4α,5,6,7-hexahydrocyclopenta[f]indazol-5-yl]methyl}-1-pyridin-4-yl-N-(2-pyridin-2-ylethyl)methanesulfonamide]
3.4 nM | COC(=O)c1cc(Cl)ccc1CCN(C[C@H]1CCC2=Cc3c(cnn3-c3ccc(F)cc3)C[C@@]21C)S(=O)(=O)CC(F)(F)F [Example 160, methyl 5-chloro-2-(2-{{[(4αR,5S)-1-(4-fluorophenyl)-4α-methyl-1,4,4α,5,6,7-hexahydrocyclopenta[f]indazol-5-yl]methyl}[(2,2,2-trifluoroethyl)sulfonyl]amino}ethyl)benzoate]
9.8 nM | CCCCCCCCS(=O)(=O)N(CCc1ccccc1F)C[C@H]1CCC2=Cc3c(cnn3-c3ccc(F)cc3)C[C@@]21C [Example 104, N-[2-(2-fluorophenyl)ethyl]-N-{[(4αR,5S)-1-(4-fluorophenyl)-4α-methyl-1,4,4α,5,6,7-hexahydrocyclopenta[f]indazol-5-yl]methyl}octane-1-sulfonamide]
1.4 nM | C[C@]12Cc3cnn(-c4ccc(F)cc4)c3C=C1CC[C@@H]2CN(CCc1ccccc1O)S(=O)(=O)c1ccccc1F [Example 116, 2-fluoro-N-{[(4αR,5S)-1-(4-fluorophenyl)-4α-methyl-1,4,4α,5,6,7-hexahydrocyclopenta[f]indazol-5-yl]methyl}-N-[2-(2-hydroxyphenyl)ethyl]benzenesulfonamide]
1.2 nM | C[C@]12Cc3cnn(-c4ccc(F)cc4)c3C=C1CC[C@@H]2CN(CCc1ccccn1)S(=O)(=O)Cc1ccccc1C(F)(F)F [Example 153, N-{[(4αR,5S)-1-(4-fluorophenyl)-4α-methyl-1,4,4α,5,6,7-hexahydrocyclopenta[f]indazol-5-yl]methyl}-N-(2-pyridin-2-ylethyl)-1-[2-(trifluoromethyl)phenyl]methanesulfonamide]
3.8 nM | COCCN(C[C@H]1CCC2=Cc3c(cnn3-c3ccc(F)cc3)C[C@@]21C)S(=O)(=O)CCN1C(=O)c2ccccc2C1=O [Example 118, 2-(1,3-dioxo-1,3-dihydro-2H-isoindol-2-yl)-N-{[(4αR,5S)-1-(4-fluorophenyl)-4α-methyl-1,4,4α,5,6,7-hexahydrocyclopenta[f]indazol-5-yl]methyl}-N-(2-methoxyethyl)ethanesulfonamide]

Second part, the compound before the results:

SMILES | Ki
C[C@@H](O)CN(C[C@H]1CCC2=Cc3c(cnn3-c3ccc(F)cc3)C[C@@]21C)S(=O)(=O)c1ccc(F)c(Cl)c1 [Example 115, 3-chloro-4-fluoro-N-{[(4αR,5S)-1-(4-fluorophenyl)-4α-methyl-1,4,4α,5,6,7-hexahydrocyclopenta[f]indazol-5-yl]methyl}-N-[(2R)-2-hydroxypropyl]benzenesulfonamide] | 2.9 nM
C[C@]12Cc3cnn(-c4ccc(F)cc4)c3C=C1CC[C@@H]2CN(CC1CCCO1)S(=O)(=O)Cc1cccc(C(F)(F)F)c1 (stereo partly drawn) [Example 110, N-{[(4αR,5S)-1-(4-fluorophenyl)-4α-methyl-1,4,4α,5,6,7-hexahydrocyclopenta[f]indazol-5-yl]methyl}-N-(tetrahydrofuran-2-ylmethyl)-1-[3-(trifluoromethyl)phenyl]methanesulfonamide] | 1.4 nM
Cn1cc(S(=O)(=O)N(CC(O)C(F)F)C[C@H]2CCC3=Cc4c(cnn4-c4ccc(F)cc4)C[C@@]32C)c(C(F)(F)F)n1 (stereo partly drawn) [Example 156, N-(3,3-difluoro-2-hydroxypropyl)-N-{[(4αR,5S)-1-(4-fluorophenyl)-4α-methyl-1,4,4α,5,6,7-hexahydrocyclopenta[f]indazol-5-yl]methyl}-1-methyl-3-(trifluoromethyl)-1H-pyrazole-4-sulfonamide] | 2.5 nM
C[C@]12Cc3cnn(-c4ccc(F)cc4)c3C=C1CC[C@@H]2CN(CC(O)C(F)(F)F)S(=O)(=O)Cc1ccccc1C(N)=O (stereo partly drawn) [Example 167, 2-({[{[(4αR,5S)-1-(4-fluorophenyl)-4α-methyl-1,4,4α,5,6,7-hexahydrocyclopenta[f]indazol-5-yl]methyl}(3,3,3-trifluoro-2-hydroxypropyl)amino]sulfonyl}methyl) benzamide] | 2.2 nM
Cn1cc(S(=O)(=O)N(CC(O)c2ccccn2)C[C@H]2CCC3=Cc4c(cnn4-c4ccc(F)cc4)C[C@@]32C)c(C(F)(F)F)n1 (stereo partly drawn) [Example 157, N-{[(4αR,5S)-1-(4-fluorophenyl)-4α-methyl-1,4,4α,5,6,7-hexahydrocyclopenta[f]indazol-5-yl]methyl}-N-(2-hydroxy-2-pyridin-2-ylethyl)-1-methyl-3-(trifluoromethyl)-1H-pyrazole-4-sulfonamide] | 0.8 nM
C[C@]12Cc3cnn(-c4ccc(F)cc4)c3C=C1CC[C@@H]2CN(CC(O)C(F)(F)F)S(=O)(=O)Cc1ccccc1C(=O)O (stereo partly drawn) [Example 164, 2-({[{[(4αR,5S)-1-(4-fluorophenyl)-4α-methyl-1,4,4α,5,6,7-hexahydrocyclopenta[f]indazol-5-yl]methyl}(3,3,3-trifluoro-2-hydroxypropyl)amino]sulfonyl}methyl)benzoic acid] | 3.2 nM
C[C@H](O)CN(C[C@H]1CCC2=Cc3c(cnn3-c3ccc(F)cc3)C[C@@]21C)S(=O)(=O)c1ccc(F)c(Cl)c1 [Example 112, 3-chloro-4-fluoro-N-{[(4αR,5S)-1-(4-fluorophenyl)-4α-methyl-1,4,4α,5,6,7-hexahydrocyclopenta[f]indazol-5-yl]methyl}-N-[(2S)-2-hydroxypropyl]benzenesulfonamide] | 1.7 nM
CC(C1CCC2=Cc3c(cnn3-c3ccc(F)cc3)C[C@@]21C)N(CC1CC1)S(=O)(=O)CC(F)(F)F (stereo partly drawn) [Example 109, N-(cyclopropylmethyl)-2,2,2-trifluoro-N-{1-[(4αR)-1-(4-fluorophenyl)-4α-methyl-1,4,4α,5,6,7-hexahydrocyclopenta[f]indazol-5-yl]ethyl}ethanesulfonamide] | 2.1 nM
C[C@]12Cc3cnn(-c4ccc(F)cc4)c3C=C1CC[C@@H]2CN(CCC(N)C(F)(F)F)S(=O)(=O)CC(F)(F)F (stereo partly drawn) [Example 147, N-(3-amino-4,4,4-trifluorobutyl)-2,2,2-trifluoro-N-{[(4aR,5S)-1-(4-fluorophenyl)-4α-methyl-1,4,4α,5,6,7-hexahydrocyclopenta[f]indazol-5-yl]methyl}ethanesulfonamide] | 3.2 nM
